Read-outs that look alike come from different tables or passages of the source.
Experiments:
[1] = biological target: T1, human Orexin 1 receptor (Homo sapiens, UniProt O43613); test: Assay A: In vitro testing of OX1R potency: OX1R IP1 (HTRF, CHO-K1/hOX1 cells, Orexin A as agonist); assay type: cell-based; settings: for Kb: read-out: OX1R Kb (Orexin A concentration used)
T1 construct: stably expressing the full-length human Orexin 1 receptor; expressed in transfected cells; host or cells: CHO-K1 (CHO-K1/hOX1), co-expressing aequorin
T1 sequence (O43613 1-425): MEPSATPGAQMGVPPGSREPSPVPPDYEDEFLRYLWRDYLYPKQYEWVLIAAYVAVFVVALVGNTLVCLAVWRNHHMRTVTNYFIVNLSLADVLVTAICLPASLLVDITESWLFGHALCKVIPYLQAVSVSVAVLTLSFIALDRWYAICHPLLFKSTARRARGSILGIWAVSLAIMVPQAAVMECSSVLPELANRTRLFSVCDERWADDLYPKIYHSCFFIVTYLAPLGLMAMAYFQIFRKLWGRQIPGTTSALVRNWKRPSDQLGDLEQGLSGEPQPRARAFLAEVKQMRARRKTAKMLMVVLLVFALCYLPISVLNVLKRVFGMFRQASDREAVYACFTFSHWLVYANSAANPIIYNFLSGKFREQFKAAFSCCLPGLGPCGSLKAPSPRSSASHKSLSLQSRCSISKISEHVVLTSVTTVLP

[2] = Assay C: Metabolic stability in human liver microsomes (Human MST); assay type: in vitro ADME; settings: pooled human liver microsomes, pH 7.6; human liver microsomes 1 mg/mL, compound 1 μM, 37° C., NADPH; read-out: Human MST t1/2
How it was run: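 Test compound (1 μM) was incubated at 37 °C with pooled human liver microsomes (1 mg/mL protein) in 0.1 M TRIS pH 7.6 with 5 mM MgCl2, and reactions were started with 1 mM NADPH. Aliquots were quenched at several time points and parent compound was quantified by LC-MS/MS. t1/2 came from the slope of the semi-log concentration–time plot.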

[3] = biological target: T2, human orexin 2 receptor (Homo sapiens, UniProt O43614); test: Assay B: In vitro testing of OX2R potency: OX2R IP1 (HTRF, CHO-K1/hOX2 cells, Orexin A as agonist); assay type: cell-based; settings: Orexin A 0.5 nM
T2 construct: stably expressing the full-length human orexin 2 receptor; expressed in transfected cells; host or cells: CHO-K1 (CHO-K1/hOX2), co-expressing aequorin
T2 sequence (O43614 1-444): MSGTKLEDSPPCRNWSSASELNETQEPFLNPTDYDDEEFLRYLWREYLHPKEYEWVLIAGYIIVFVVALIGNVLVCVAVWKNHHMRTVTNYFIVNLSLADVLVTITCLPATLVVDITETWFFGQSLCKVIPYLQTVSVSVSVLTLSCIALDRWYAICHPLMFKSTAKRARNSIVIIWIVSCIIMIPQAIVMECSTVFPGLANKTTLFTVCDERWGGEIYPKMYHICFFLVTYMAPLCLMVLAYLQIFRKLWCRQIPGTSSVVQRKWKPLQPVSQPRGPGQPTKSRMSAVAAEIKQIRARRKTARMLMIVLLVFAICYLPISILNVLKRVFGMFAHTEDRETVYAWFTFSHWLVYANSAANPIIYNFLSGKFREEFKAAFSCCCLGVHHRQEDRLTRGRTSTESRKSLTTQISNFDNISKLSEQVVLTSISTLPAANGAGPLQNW
How it was run: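 Kb was derived from IC50 (4-parameter fit) by correcting for agonist level, using IP1 accumulation read by HTRF 665/615 ratio. Stimulus: 0.5 nM Orexin A for 60 min at 37 °C, following 15 min compound preincubation (8 points, 1% DMSO, LiCl-containing buffer pH 7.4) on hOX2R-expressing CHO-K1 cells.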

SMILES | OX2R Kb/OX1R Kb ([1]; OX1R Kb at 0.5 nM Orexin A) | OX2R Kb/OX1R Kb ([1]; OX1R Kb at 50 nM Orexin A) | Kb ([1]; Orexin A 0.5 nM) [nM] | Kb ([1]; Orexin A 50 nM) [nM] | half-life at 1 μM [2] [min] | Kb [3] [nM]
CCN(C(=O)c1cccc(C)c1-c1nnc(C)o1)[C@@H](C)COc1ccc(Cl)cn1 [Example 39] | 93 | 152 | 0.88 | 0.54 | 23 | 82
CCN(C(=O)c1cccc(F)c1-n1nccn1)[C@@H](C)COc1ccc(Br)cn1 [Example 111] | 123 | 213 | 0.4 | 0.23 | 62 | 49
CCN(C(=O)c1ccc(F)cc1-n1nccn1)[C@@H](C)COc1ccc(C(F)(F)F)cn1 [Example 1] | 171 |  | 0.34 |  | 38 | 58
CCN(C(=O)c1cc(OC)ccc1-n1nccn1)[C@@H](C)COc1ccc(C(F)(F)F)cn1 [Example 15] |  | 250 |  | 0.06 | 16 | 15
CCN(C(=O)c1cc(F)ccc1-n1cccn1)[C@@H](C)COc1ncc(C(F)(F)F)cc1F [Example 124] | 278 |  | 3.8 |  | 10 | 1060
CCN(C(=O)c1ccc(C#N)cc1-n1nccn1)[C@@H](C)COc1ccc(C(F)(F)F)cn1 [Example 103] | 273 |  | 4.28 |  | 58 | 1170
CCN(C(=O)c1cc(F)ccc1-n1nccn1)[C@@H](C)COc1ccc(C(F)(F)F)cn1 [Example 3] |  | 157 |  | 0.28 | 62 | 44
CCN(C(=O)c1cc(F)ccc1-c1ncccn1)[C@@H](C)COc1ccc(C(F)(F)F)cn1 [Example 107] |  | 500 |  | 0.064 | 65 | 32
CCN(C(=O)c1ccc(F)cc1-c1ncccn1)[C@@H](C)COc1ccc(C(F)(F)F)cn1 [Example 108] |  | 409 |  | 0.11 | 50 | 45

Source: patent publication US10787432B2, “N-[(pyridyloxy)propanyl]benzamides” (Boehringer Ingelheim International GmbH, priority 2016, dated 2020)
